Test results published in patent US20210115018A1, “PIPERIDINE COMPOUNDS AS COVALENT MENIN INHIBITORS” (THE REGENTS OF THE UNIVERSITY OF MICHIGAN, priority 2018, published 2021).

Experiments:
menin protein = target: T1, menin protein (Homo sapiens, UniProt O00255); assay: Fluorescence polarization (FP) competitive binding assay, menin binding affinity; settings: FP competition with FAM-MM2 probe 2 nM, menin 4 nM, 30 minutes room temperature
T1 sequence (O00255 1-610): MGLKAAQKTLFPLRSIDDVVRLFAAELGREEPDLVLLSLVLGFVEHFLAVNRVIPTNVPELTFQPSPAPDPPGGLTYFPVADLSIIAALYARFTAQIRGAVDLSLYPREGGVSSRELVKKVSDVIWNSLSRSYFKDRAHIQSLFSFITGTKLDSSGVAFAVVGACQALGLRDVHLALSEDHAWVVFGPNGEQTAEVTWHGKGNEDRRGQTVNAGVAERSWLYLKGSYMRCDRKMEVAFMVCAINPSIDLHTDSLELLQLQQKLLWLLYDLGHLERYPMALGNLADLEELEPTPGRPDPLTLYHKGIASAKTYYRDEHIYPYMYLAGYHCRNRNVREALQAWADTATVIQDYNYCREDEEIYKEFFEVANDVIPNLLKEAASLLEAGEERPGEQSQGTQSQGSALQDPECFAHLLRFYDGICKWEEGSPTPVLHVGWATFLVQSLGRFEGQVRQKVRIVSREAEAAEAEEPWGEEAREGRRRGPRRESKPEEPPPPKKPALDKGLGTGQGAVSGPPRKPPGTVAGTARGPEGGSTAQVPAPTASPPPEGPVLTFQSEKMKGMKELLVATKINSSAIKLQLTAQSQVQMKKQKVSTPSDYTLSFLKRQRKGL
Outline: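 Competitive FP with FAM-labeled MLL1 peptide probe FAM-MM2 (2 nM) and menin (4 nM) in PBS, 0.02% bovine γ-globulin, 4% DMSO, 0.01% Triton X-100. After 30 min at room temperature, mP read at 485/530 nm; IC50 from nonlinear regression against probe-only and complex-only controls.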

MOLM13 = assay: 7-day proliferation assay (WST-8), cell growth inhibition; format: cell-based; settings: Homo sapiens, MOLM-13, 168 h, MOLM13 cells, 7 days
Outline: (§1)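 Cells seeded at 2,000-3,000/well were exposed to serially diluted compound for 7 days at 37° C., 5% CO2. Viability was read by WST-8 absorbance at 450 nm after 1-2 h color development; readings normalized to DMSO-treated cells, IC50 by four-parameter nonlinear regression.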

MV4-11 = assay: as above; format: cell-based; settings: Homo sapiens, MV4-11, 168 h, MV4-11 cells, 7 days
Outline: as §1

SMILES | IC50 (menin protein) | IC50 (MOLM13) | IC50 (MV4-11)
COC(=O)N[C@H]1CCC[C@@H]1[C@](CN1CCC1)(c1cccc(F)c1)C1CCN(CC2CN(c3ccc(S(=O)(=O)C4CN(C(=O)/C=C/CN5CCCCC5)C4)cc3)C2)CC1 [Cpd. No. 24, methyl ((1S,2R)-2-((S)-2-(azetidin-1-yl)-1-(3-fluorophenyl)-1-(1-((1-(4-((1-((E)-4-(piperidin-1-yl)but-2-enoyl)azetidin-3-yl)sulfonyl)phenyl)azetidin-3-yl)methyl)piperidin-4-yl)ethyl)cyclopentyl)carbamate] | 3 nM | < 10 nM | < 10 nM
C=CC(=O)N1CCCC[C@@H](S(=O)(=O)c2ccc(N3CC(F)(CN4CCC([C@@](CN5CCC5)(c5cccc(F)c5)[C@H]5CCC[C@@H]5NC(=O)OC)CC4)C3)c(F)c2)C1 [compound 224] | 4 nM | < 50 nM | < 50 nM
COC(=O)N[C@H]1CCC[C@@H]1[C@](CN1CCC1)(c1cccc(F)c1)C1CCN(CC2CN(c3ccc(S(=O)(=O)C4CN(C(=O)/C=C/CN5CC(F)C5)C4)cc3)C2)CC1 [Cpd. No. 174] | 2 nM | < 10 nM | < 10 nM
CC#CC(=O)N1CCCC[C@@H](S(=O)(=O)c2ccc(N3CC(F)(CN4CCC([C@@](CN5CCC5)(c5cccc(F)c5)[C@H]5CCC[C@@H]5NC(=O)OC)CC4)C3)cc2)C1 [compound 231] | 4 nM | < 500 nM | < 500 nM
C=CC(=O)N1CCCC[C@@H](S(=O)(=O)c2ccc(N3CC(F)(CN4CCC([C@@](CN5CCC5)(c5cccc(F)c5)[C@H]5CCC[C@@H]5NC(=O)OC)CC4)C3)cc2)C1 [compound 221] | 5 nM | < 50 nM | < 50 nM
C=CC(=O)Nc1cccc(S(=O)(=O)c2ccc(N3CC(F)(CN4CCC([C@@](CN5CCC5)(c5cccc(F)c5)[C@H]5CCC[C@@H]5NC(=O)OC)CC4)C3)c(F)c2)c1 [compound 80] | 2 nM | < 50 nM | < 50 nM
COC(=O)N[C@H]1CCC[C@@H]1[C@](CN1CCC1)(c1cccc(F)c1)C1CCN(CC2CN(c3ccc(S(=O)(=O)C4CN(C(=O)/C=C/CN5CCC(C)(O)CC5)C4)cc3)C2)CC1 [compound 99] | 9 nM | < 100 nM | < 10 nM
C=CC(=O)N1CCCC[C@@H](S(=O)(=O)c2ccc(N3CC(CN4CCC([C@@](CN5CCC5)(c5cccc(F)c5)[C@H]5CCC[C@@H]5NC(=O)OC)CC4)C3)c(F)c2)C1 [compound 223] | 4 nM | < 50 nM | < 50 nM
COC(=O)N[C@H]1CCC[C@@H]1[C@](CN(C)C)(c1cccc(F)c1)C1CCN(CC2CN(c3ccc(S(=O)(=O)C4CN(C(=O)/C=C/CN(C)C)C4)cc3)C2)CC1 [Cpd. No. 2, methyl ((1S,2R)-2-((S)-2-(dimethylamino)-1-(1-((1-(4-((1-((E)-4-(dimethylamino)but-2-enoyl)azetidin-3-yl)sulfonyl)phenyl)azetidin-3-yl)methyl)piperidin-4-yl)-1-(3-fluorophenyl)ethyl)cyclopentyl)carbamate] | 5 nM | < 10 nM | < 10 nM
COC(=O)N[C@H]1CCC[C@@H]1[C@](CN1CCC1)(c1cccc(F)c1)C1CCN(CC2CN(c3ccc(S(=O)(=O)C4CN(C(=O)/C=C/CN5CCCC5)C4)cc3)C2)CC1 [Cpd. No. 20, methyl ((1S,2R)-2-((S)-2-(azetidin-1-yl)-1-(3-fluorophenyl)-1-(1-((1-(4-((1-((E)-4-(pyrrolidin-1-yl)but-2-enoyl)azetidin-3-yl)sulfonyl)phenyl)azetidin-3-yl)methyl)piperidin-4-yl)ethyl)cyclopentyl)carbamate] | 2 nM | < 100 nM | < 10 nM
C=CC(=O)N1CCCC[C@@H](S(=O)(=O)c2ccc(N3CC(O)(CN4CCC([C@@](CN5CCC5)(c5cccc(F)c5)[C@H]5CCC[C@@H]5NC(=O)OC)CC4)C3)c(F)c2)C1 [compound 229] | 8 nM | < 500 nM | < 100 nM
